Assay [1] deals with T1, KRas G12D (Homo sapiens (Human), UniProt P01116, G12D). The experiment in a line: KRas G12D Surface Plasmon Resonance (SPR) Binding Assay. Particulars: Biacore T200, immobilized biotinylated KRAS protein, 1:1 binding model. On the technique in general: SPR reads the build-up and loss of mass on a sensor chip optically.
Target sequence in this assay (P01116-2 other isoform, or with tags, fused parts or gaps G12D): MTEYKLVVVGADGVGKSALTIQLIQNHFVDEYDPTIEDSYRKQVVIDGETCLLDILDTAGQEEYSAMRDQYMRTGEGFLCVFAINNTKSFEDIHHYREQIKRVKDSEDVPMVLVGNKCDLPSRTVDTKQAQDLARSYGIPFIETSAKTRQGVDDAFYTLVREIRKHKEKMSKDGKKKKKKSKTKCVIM
The target in assay [2] is T1, KRas G12D. The experiment in a line: KRas G12D Binding Assay (TR-FRET displacement of Cy5 labelled tracer). Particulars: GDP-loaded KRAS G12D (amino acids 1:169), 60 minute incubation at 22° C. The method, then:
After a 60 minute incubation at 22° C., the reaction was measured using a PerkinElmer EnVision multimode plate reader via TR-FRET dual wavelength detection, and the percent of control (POC) calculated using a ratiometric emission factor. […] The POC values were fit to a 4-parameter logistic curve and the IC50 value was determined as the concentration where the curve crosses 50 POC.
ND stands for “not determined.”
Target sequence in this assay (P01116 other isoform, or with tags, fused parts or gaps G12D): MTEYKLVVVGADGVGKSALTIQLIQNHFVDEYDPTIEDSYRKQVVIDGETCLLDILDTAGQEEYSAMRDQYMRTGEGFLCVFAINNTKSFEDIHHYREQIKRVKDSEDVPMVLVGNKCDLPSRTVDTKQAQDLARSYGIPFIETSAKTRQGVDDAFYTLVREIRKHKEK
Background: Time-resolved FRET reads energy transfer from a long-lived donor to a nearby acceptor.

A value given as a limit tells only on which side of the number the result lay.

Take `Cn1ccnc1CCNc1nc(N2C[C@H]3CC[C@@H](C2)N3)c2cnc(-c3cc(O)cc4ccccc34)c(F)c2n1` [Example 111, 4-(4-((1R,5S)-3,8-diazabicyclo[3.2.1]octan-3-yl)-8-fluoro-2-((2-(1-methyl-1H-imidazol-2-yl)ethyl)amino)pyrido[4,3-d]pyrimidin-7-yl)naphthalen-2-ol]: the Kd on KRas G12D [1] turned out to be 0.276 µM. For the same compound, the IC50 at KRas G12D [2] amounted to 0.281 µM.

`Fc1c(-c2cccc3cccc(Cl)c23)ncc2c(N3CC4CC(F)C(C3)N4)nc(OC[C@@]34CCCN3C[C@H](F)C4)nc12` (stereo partly shown) [Example 396, 7-(8-chloronaphthalen-1-yl)-8-fluoro-4-(6-fluoro-3,8-diazabicyclo[3.2.1]octan-3-yl)-2-((2-fluorotetrahydro-1H-pyrrolizin-7a(5H)-yl)methoxy)pyrido[4,3-d]pyrimidine] returned a Kd on KRas G12D [1] of 0.0348 µM. On KRas G12D [2], this compound yielded an IC50 of 0.207 µM.

At KRas G12D [1], `CN1CCC[C@H]1COc1nc(N2C[C@H]3CC[C@@H](C2)N3)c2cnc(-c3cccc4cccc(Cl)c34)cc2n1` [Example 123, 4-((1R,5S)-3,8-diazabicyclo[3.2.1]octan-3-yl)-7-(8-chloronaphthalen-1-yl)-2-(((S)-1-methylpyrrolidin-2-yl)methoxy)pyrido[4,3-d]pyrimidine] gave a Kd of 0.786 µM. On KRas G12D [2], this compound showed an IC50 of 0.754 µM.

On to `Fc1c(-c2cccc3cccc(Cl)c23)ncc2c(N3C[C@H]4CC[C@@H](C3)N4)nc(OCC34CCCCN3CCC4)nc12` (stereo partly drawn) [Example 54, 4-((1R,5S)-3,8-diazabicyclo[3.2.1]octan-3-yl)-7-(8-chloronaphthalen-1-yl)-8-fluoro-2-((hexahydroindolizin-8a(1H)-yl)methoxy)pyrido[4,3-d]pyrimidine], for which, on KRas G12D [1], the Kd turned out to be 0.118 µM. On KRas G12D [2], this compound displayed a half-inhibitory concentration (IC50) of 0.0687 µM.

For the compound `CN1CCC[C@H]1COc1nc(N2C[C@H]3CC[C@@H](C2)N3)c2cnc(-c3cccc4c3CCCC4)c(F)c2n1` [Example 21, 4-((1R,5S)-3,8-diazabicyclo[3.2.1]octan-3-yl)-8-fluoro-2-(((S)-1-methylpyrrolidin-2-yl)methoxy)-7-(5,6,7,8-tetrahydronaphthalen-1-yl)pyrido[4,3-d]pyrimidine], the Kd at KRas G12D [1] came out at 0.448 µM. At KRas G12D [2], this compound had an IC50 of 0.263 µM.

`CN1CCC[C@H]1COc1nc(N2C[C@H]3CC[C@@H](C2)N3)c2cnc(-c3cncc4cccc(Cl)c34)c(F)c2n1` [Example 151, 4-((1R,5S)-3,8-diazabicyclo[3.2.1]octan-3-yl)-7-(5-chloroisoquinolin-4-yl)-8-fluoro-2-(((S)-1-methylpyrrolidin-2-yl)methoxy)pyrido[4,3-d]pyrimidine]: the Kd at KRas G12D [1] stood at 0.448 µM. The same compound showed an IC50 at KRas G12D [2] of 0.388 µM.

As to `CN(C)CCOc1nc(N2C[C@H]3CC[C@@H](C2)N3)c2cnc(-c3cccc4cccc(Cl)c34)c(F)c2n1` [Example 107, 2-((4-((I R,5S)-3,8-diazabicyclo[3.2.1]octan-3-yl)-7-(8-chloronaphthalen-1-yl)-8-fluoropyrido[4,3-d]pyrimidin-2-yl)oxy)-N,N-dimethylethan-1-amine], the Kd on KRas G12D [1] was 1.44 µM. The IC50 on KRas G12D [2] worked out at 2.12 µM.

On KRas G12D [1], `CC1CCc2cccc(-c3ncc4c(N5CC6CCC(C5)N6)nc(OC[C@@H]5CCCN5C)nc4c3F)c21` (stereo partly drawn) [Example 174, 4-((1R,5S)-3,8-diazabicyclo[3.2.1]octan-3-yl)-8-fluoro-7-(3-methyl-2,3-dihydro-1H-inden-4-yl)-2-(((S)-1-methylpyrrolidin-2-yl)methoxy)pyrido[4,3-d]pyrimidine] showed a Kd of 0.186 µM. Also, the IC50 on KRas G12D [2] was 0.0639 µM.

As for `C#Cc1cccc2cccc(-c3ncc4c(N5C[C@H]6CC[C@@H](C5)N6)nc(OCC56CCCN5CCC6)nc4c3F)c12` [Example 179, 4-((1R,5S)-3,8-diazabicyclo[3.2.1]octan-3-yl)-7-(8-ethynylnaphthalen-1-yl)-8-fluoro-2-((hexahydro-1H-pyrrolizin-7a-yl)methoxy)pyrido[4,3-d]pyrimidine], binding on KRas G12D [1] was put at a Kd of 0.0001 µM. This compound also registered an IC50 at KRas G12D [2] of 0.0011 µM.

Consider `Cn1cnc(COc2nc(N3C[C@H]4CC[C@@H](C3)N4)c3cnc(-c4cc(O)cc5ccccc45)c(F)c3n2)c1` [Example 9, 4-(4-((1R,5S)-3,8-diazabicyclo[3.2.1]octan-3-yl)-8-fluoro-2-((1-methyl-1H-imidazol-4-yl)methoxy)pyrido[4,3-d]pyrimidin-7-yl)naphthalen-2-ol], for which, at KRas G12D [1], the equilibrium dissociation constant (Kd) was 0.259 µM. In addition, the IC50 at KRas G12D [2] came to 0.821 µM.

Regarding `Oc1cc(-c2ncc3c(N4C[C@H]5CC[C@@H](C4)N5)nc(OCCc4cccnc4)nc3c2F)c2ccccc2c1` [Example 106, 4-(4-((1R,5S)-3,8-diazabicyclo[3.2.1]octan-3-yl)-8-fluoro-2-(2-(pyridin-3-yl)ethoxy)pyrido[4,3-d]pyrimidin-7-yl)naphthalen-2-ol], binding at KRas G12D [1] was characterised by a dissociation constant (Kd) of 0.0535 µM. On KRas G12D [2], the IC50 came out at 0.156 µM.

`Oc1cc(-c2ncc3c(N4C[C@H]5CC[C@@H](C4)N5)nc(OCc4cccnc4)nc3c2F)c2ccccc2c1` [Example 99, 4-(4-((1R,5S)-3,8-diazabicyclo[3.2.1]octan-3-yl)-8-fluoro-2-(pyridin-3-ylmethoxy)pyrido[4,3-d]pyrimidin-7-yl)naphthalen-2-ol] showed a dissociation constant Kd at KRas G12D [1] of 0.897 µM. For the same compound, at KRas G12D [2], the half-inhibitory concentration (IC50) amounted to 0.624 µM.

`Cc1cccc(F)c1-c1ncc2c(N3C[C@H]4CC[C@@H](C3)N4)nc(OCCc3nccn3C)nc2c1F` [Example 316, 4-((1R,5S)-3,8-diazabicyclo[3.2.1]octan-3-yl)-8-fluoro-7-(2-fluoro-6-methylphenyl)-2-(2-(1-methyl-1H-imidazol-2-yl)ethoxy)pyrido[4,3-d]pyrimidine] yielded a Kd on KRas G12D [1] of 157 µM. Also, at KRas G12D [2], the IC50 is above 10 µM.

At KRas G12D [1], `Cn1ccnc1COc1nc(N2C[C@H]3CC[C@@H](C2)N3)c2cnc(-c3cc(O)cc4ccccc34)c(F)c2n1` [Example 104, 4-(4-((1R,5S)-3,8-diazabicyclo[3.2.1]octan-3-yl)-8-fluoro-2-((1-methyl-1H-imidazol-2-yl)methoxy)pyrido[4,3-d]pyrimidin-7-yl)naphthalen-2-ol] yielded a Kd of 0.362 µM. This compound also yielded an IC50 on KRas G12D [2] of 1.68 µM.

In the case of `COc1ccc(CCOc2nc(N3C[C@H]4CC[C@@H](C3)N4)c3cnc(-c4cccc5cccc(Cl)c45)c(F)c3n2)cn1` [Example 86, 4-((1R,5S)-3,8-diazabicyclo[3.2.1]octan-3-yl)-7-(8-chloronaphthalen-1-yl)-8-fluoro-2-(2-(6-methoxypyridin-3-yl)ethoxy)pyrido[4,3-d]pyrimidine], at KRas G12D [1], the Kd amounted to 528 µM. This compound also displayed an IC50 on KRas G12D [2] of 7.92 µM.

Consider `Oc1cc(-c2ncc3c(N4C[C@H]5CC[C@@H](C4)N5)nc(OC4CCSCC4)nc3c2F)c2ccccc2c1` [Example 79, 4-(4-((1R,5S)-3,8-diazabicyclo[3.2.1]octan-3-yl)-8-fluoro-2-((tetrahydro-2H-thiopyran-4-yl)oxy)pyrido[4,3-d]pyrimidin-7-yl)naphthalen-2-ol], for which the dissociation constant Kd on KRas G12D [1] was above 1000 µM. The compound further returned an IC50 on KRas G12D [2] of 0.337 µM.

Turning to `Cc1cccc2cccc(-c3ncc4c(N5C[C@H]6CC[C@@H](C5)N6)nc(OCCc5cccnc5)nc4c3F)c12` [Example 101, 4-((1R,5S)-3,8-diazabicyclo[3.2.1]octan-3-yl)-8-fluoro-7-(8-methylnaphthalen-1-yl)-2-(2-(pyridin-3-yl)ethoxy)pyrido[4,3-d]pyrimidine], the affinity on KRas G12D [1], expressed as Kd, was 12 µM. The IC50 at KRas G12D [2] stood at 8.08 µM.

Usually Kd stands for the equilibrium constant for the complex coming apart. A higher Kd goes with lower affinity. Broadly, the IC50 is the concentration that inhibits the measured activity by half.

For the origin of these results see patent US20230279025A1, “KRAS G12D INHIBITORS” (Mirati Therapeutics, Inc., priority 2020, published 2023).
